Assay results: patent publication US20030133918A1, “Methods for ex vivo propagation of somatic stem cells” (priority 2001, published 2003)

Experiments:
[1] = test system: Xs-D8 cells; assay: Daughter pair analysis (DPA), BrdU incorporation; assay type: cell-based, rat; settings: addition of Xs; n=58 pairs; 16% in absence of Xs
Experimental: The assay is called a “daughter pair analysis” (DPA). To perform the DPA, cells are plated in Xs-containing medium at microcolony density (approximately one cell per 40× microscope field). After allowing 4 to 5 hours for cell adherence, asymmetric cell kinetics are induced by changing to Xs-free medium. After about 16 hours to allow cell divisions to produce “daughter pairs”, the cells are labeled for 4 hours with the thymidine analogue bromodeoxyuridine (BrdU). The cells are then fixed and evaluated for BrdU incorporation by in situ immunofluorescence.
When grown in the absence of Xs, 84% of Xs-D8 BrdU(+) daughter pairs show a single BrdU(+) daughter (n=76 pairs; e.g., FIGS. 3C,F). The BrdU(+) daughter is the cycling stem cell daughter, whereas the BrdU(−) daughter corresponds to a non-cycling transit cell daughter that can undergo differentiation in peptide hydrogels (data not shown). Consistent with its ability to shift cells from asymmetric to exponential kinetics, addition of Xs increases the fraction of double-BrdU(+) Xs-D8 daughter pairs from 16% to 76% (n=58 pairs; e.g., FIGS. 3B,E). […] For 70 scored daughter pairs in Xs-free medium, the frequency of Xs-F1 symmetric pairs was 5 times the frequency of Xs-D8 symmetric pairs.

[2] = test system: bone marrow cells; assay: Non-adherent cell production in long-term bone marrow culture; assay type: cell-based, mice; settings: Xs 1 mM, medium with 25% horse serum
Experimental: The non-adherent cell production rate (CPR) is defined as the total number of non-adherent cells produced in a single long-term culture normalized to days of culture (mean=95 days; range=66 to 132) and input cell number (range=5×10^6 to 20×10^6 cells). To develop long-term bone marrow cultures, freshly isolated bone marrow cells from tibia and femurs of 7-12 week-old female C57BL/6J mice were grown in culture medium supplemented with 25% horse serum.

[3] = test system: adherent cells from long-term bone marrow cultures; assay: Soft agar colony formation by adherent cells from long-term bone marrow cultures; assay type: cell-based, mice; settings: adherent cells from cultures with 0.4 to 1.0 mM Xs
Excerpt: Because of the difficulties anticipated in cloning Xs-dependent cells from heterogenous long-term bone marrow cultures, we decided to adopt a soft agar culture strategy. It is well known that hematopoietic progenitor cells will form colonies when grown in semi-solid medium (Dexter et al., 1984). […] Instead, it simply reflects their natural ability to divide without anchorage. In many bone marrow cell studies, conditions are selected to induce bone marrow cell differentiation. Methyl-cellulose or soft agar supplemented with lineage-promoting growth factors are widely used experimental systems (Dexter et al., 1984). For ideal SACK, we wished to minimize stimuli for differentiation. Therefore, we used agar developed in routine horse serum-supplemented long-term culture medium, without any additional growth factor source, as the gel medium for our studies. We followed procedures developed for detecting anchorage-independent growth of transformed tumor cells.
Our plan was to evaluate SACK effects on soft agar colonies derived from fresh bone marrow. Therefore, we wished to relate the morphology of colonies that arose from fresh bone marrow cells to those that arose from LT-CFCs in long-term cultures. […] After 9 weeks of culture, when adherent cells were evaluated after washing and then removal with half-strength trypsin, only type II colonies were detected (frequency=19×10^−5). […]

[4] = test system: freshly harvested murine bone marrow cells; assay: Bone marrow colony formation in soft agar (fresh bone marrow); assay type: cell-based
Experimental: The following numbers of freshly harvested murine bone marrow cells were plated in soft agar in replicates of 6 in 6-well plates: 1×10^5, 5×10^5, or 1×10^6. After 1-3 weeks, type I, II, and III colonies (see FIG. 2 for examples) were enumerated by phase microscopy.
Because of the difficulties anticipated in cloning Xs-dependent cells from heterogenous long-term bone marrow cultures, we decided to adopt a soft agar culture strategy. It is well known that hematopoietic progenitor cells will form colonies when grown in semi-solid medium (Dexter et al., 1984). […] In many bone marrow cell studies, conditions are selected to induce bone marrow cell differentiation. Methyl-cellulose or soft agar supplemented with lineage-promoting growth factors are widely used experimental systems (Dexter et al., 1984). For ideal SACK, we wished to minimize stimuli for differentiation. Therefore, we used agar developed in routine horse serum-supplemented long-term culture medium, without any additional growth factor source, as the gel medium for our studies. We followed procedures developed for detecting anchorage-independent growth of transformed tumor cells.
Given their associated HSC activity, LT-CFCs are predicted to divide with asymmetric cell kinetics. We evaluated whether Xs would increase the frequency of LT-CFC type I colonies in soft agar. Freshly prepared bone marrow cells were plated in soft agar developed in either control medium or medium containing 1 mM or 3 mM Xs.

[5] = test system: LT-CFCs; assay: Serial transfer of LT-CFC-derived type I colonies in soft agar; assay type: cell-based, murine
Experimental: Type I colonies were isolated from soft agar with either control medium or medium containing Xs (data for 1 mM and 3 mM Xs are combined). Colonies were dispersed and then plated in a single 6-well in soft agar developed with culture medium containing the respective concentration of Xs. After 1-3 weeks, the number and type of secondary colonies were scored by phase microscopy. Bars indicate the mean percent of positive wells for each secondary colony type. Data for the control condition are the means of two independent experiments; data for Xs condition are the means of four independent experiments. We next evaluated whether LT-CFCs which produced type I colonies could be propagated in soft agar. Pasteur pipettes were used to isolate type I colonies from soft agar developed in either control medium or medium containing Xs. Isolated colonies were dispersed and their cells replated in their entirety in a single well of a 6-well plate in soft agar developed with the respective Xs concentration.

[6] = test system: p53-inducible model cells; settings: p53-inducible model cells (Sherley et al. 1995a, Liu et al. 1998a); cited from earlier work

O=c1[nH]c(=O)c2ncn([C@@H]3O[C@H](CO)[C@@H](O)[C@H]3O)c2[nH]1 [Xs, xanthosine]
Fraction of double-BrdU(+) Xs-D8 daughter pairs [1]: 76%
Increase in the rate of production of non-adherent, differentiated cells [2]: 80%
More type I colonies than control cultures (average) [3]: 35%
Increase in the frequency of type I colonies ([4]; 1 mM Xs, density of 1×10^5 bone marrow cells per 6-well): 1.5 fold
Mean fold increase in the frequency of type I colonies ([4]; 1 mM Xs, inputs of 5×10^5 or 1×10^6 cells): 5.3 fold
Mean fold increase in type I colony formation ([4]; Xs 1 mM and 3 mM, range 1.2 to 6.2, p<0.017): 2.9 fold
Occurrence of multiple secondary colonies, more common in the presence of Xs ([5]; presence vs absence of Xs): 5 times
Cases of multiple secondary colonies that occurred in Xs-containing medium ([5]; secondary colonies from type I colonies, 1 mM and 3 mM Xs combined): Eighty-three
Type I colonies more frequent than type II and III colonies ([5]; secondary colonies in Xs-containing soft agar): 50%
Efficiency of giving rise to type I secondary colonies versus control type I colonies ([5]; type I colonies grown in Xs): 4 fold
Suppression of asymmetric cell kinetics [6]: can suppress the asymmetric cell kinetics
